In US12390483B2, “Compounds and methods for treating neurological and cardiovascular conditions” (Astrocyte Pharmaceuticals, Inc., priority 2016, dated 2025):
Where two headings read alike, the source gives them in different places.

Legend:
[1] = In vitro stability of MRS2365 in mouse plasma; type: in vitro ADME; details: heparin-treated mouse plasma, 0-90 seconds, even at 0 and 5 seconds
Description: (§1) Whole blood was obtained from male CD-1 mice and human volunteers at Seventh Wave Laboratories (Maryland Heights, MO). Plasma and blood samples were prepared using either EDTA (1 mM) or lithium heparin as anticoagulants.
Plasma Stability Determination: MRS2365, enalapril and procaine were solubilized in phosphate-buffered saline, pH 7.4. […] Stability incubations were initiated with the addition of MRS2365 (1 μM final concentration). Initial assessments of stability in EDTA-generated plasma utilized incubation timepoints of 0, 10, 30, 60, 120 and 240 minutes (FIGS. 3 and 4). Subsequent studies comparing EDTA- and heparin-generated plasma utilized incubation timepoints of 0, 1, 2.5, 5, 7.5, 10 and 30 minutes (FIG. 7). Additional plasma stability incubations comparing EDTA- and heparin-generated plasma were performed using timepoints of 0, 5, 10, 20, 30, 45, 60 and 90 seconds (FIG. 8). For metabolite scouting analyses, MRS2365 was incubated in heparinized human plasma at a concentration of 100 μM for 10 or 30 minutes (FIG. 9). In all studies, plasma was immediately placed in microtainer tubes, frozen on dry ice and stored at −80° C. until analysis.
The following table outlines the LC and MS/MS conditions employed (Table 11).
The calibration range for MRS2365 plasma and blood concentration standard curves was 5-5000 ng/mL. […]

[2] = In vitro stability and metabolite scouting of MRS2365 in human plasma; type: in vitro ADME
Description: as §1
Plasma Stability Determination: MRS2365, enalapril and procaine were solubilized in phosphate-buffered saline, pH 7.4. […] Stability incubations were initiated with the addition of MRS2365 (1 μM final concentration). Initial assessments of stability in EDTA-generated plasma utilized incubation timepoints of 0, 10, 30, 60, 120 and 240 minutes (FIGS. 3 and 4). […]
(§2) Plasma and blood samples were also qualitatively analyzed for MRS2365 metabolites utilizing a LC-MS/MS-based “metabolite scouting” protocol. […] Blood and plasma samples were analyzed by both positive- and negative-ion LC/MS-MS for parent compound and metabolites as it was anticipated that the phosphorylated compounds would preferentially generate negative ions while the riboside MRS4322 would preferentially generate positive ions. In positive-ion mode, extracted ion chromatograms monitored masses in the range of 323.7-324.7 and 403.7-404.7 to scout for MRS4322 and MRS2347, respectively. Any ion peaks in these ranges were further analyzed to generate product ion spectra for these ion chromatogram peaks. […]

[3] = In vitro stability and metabolite scouting of MRS2365 in human whole blood; type: in vitro ADME; details: 100 μM in human whole blood, lithium heparin as anti-coagulant
Description: as §1
Blood sample aliquots were obtained at 0, 1, 2.5, 7.5, 10 and 30 minutes and placed in microtainer tubes. For metabolite scouting analyses, MRS2365 was incubated in heparinized human whole blood at a concentration of 100 μM for 10 or 30 minutes (FIG. 10). In all studies, plasma was immediately prepared by centrifugation at 4° C., placed in microtainer tubes, frozen on dry ice and stored at −80° C. until analysis. […]
as §2

[4] = Stability of MRS2365 incubated in phosphate-buffered saline; type: physicochemical
[5] = Pharmacokinetics of MRS4322 following intravenous administration to neonatal pigs; type: in vivo; details: 0.2 mg/kg IV; for C0: 0.2 mg/kg, neonatal pig plasma, individual animals
Description: Animals. Four-week old female neonatal pigs weighing approximately 7.5 Kg were used for this study, supplied by the Department of Bioengineering, University of Pennsylvania (Philadelphia, PA). Animals were equipped with brain microdialysis probes to obtain brain extracellular fluid samples for drug concentration determinations during the study. All studies were conducted under approved University of Pennsylvania IACUC protocols.
Drug Administration: MRS4322 was solubilized in DMSO and then diluted in saline to prepare dosing solution. A 10 mL volume of dosing solution was administered by intravenous bolus administration to each neonatal pig (n=3).
Tissue Sampling: Blood samples were obtained at 0.25, 0.5, 1, 2, 4 and 6 hours post-dose. Brain extracellular fluid samples were obtained from implanted microdialysis probes at 1, 4 and 6 hours post-dose. Whole blood (1 mL) was obtained at each timepoint and placed in vacutainer tubes containing heparin and immediately centrifuged for preparation of plasma; plasma was stored at −80° C. Brain extracellular and cerebrospinal fluid samples were stored at −80° C. At the time of euthanasia (6 hours post-dose), cerebrospinal fluid samples were obtained and frozen, while brain samples from the cortex and hippocampus were obtained by decapitation, rinsed in ice-cold phosphate-buffered saline and weighed. Brain samples were then immediately flash-frozen in liquid nitrogen and stored at −80° C.
The following table outlines the LC and MS/MS conditions employed:
The calibration ranges for all of the MRS4322 matrice's standard curves were 0.1-1000 ng/mL.
For bioanalysis of brain concentrations of MRS4322, brain samples were homogenized in ice-cold phosphate-buffered saline in a 4× dilution. Aliquots of the resulting diluted brain homogenate were treated with acetonitrile and analyzed by LC-MS/MS.

A3 receptor = target: T1, A3 receptor (Mus musculus, UniProt Q61618); assay: Affinity at the A3 receptor in the mouse as stated in the discussion; type: binding
T1 sequence (Q61618 1-319): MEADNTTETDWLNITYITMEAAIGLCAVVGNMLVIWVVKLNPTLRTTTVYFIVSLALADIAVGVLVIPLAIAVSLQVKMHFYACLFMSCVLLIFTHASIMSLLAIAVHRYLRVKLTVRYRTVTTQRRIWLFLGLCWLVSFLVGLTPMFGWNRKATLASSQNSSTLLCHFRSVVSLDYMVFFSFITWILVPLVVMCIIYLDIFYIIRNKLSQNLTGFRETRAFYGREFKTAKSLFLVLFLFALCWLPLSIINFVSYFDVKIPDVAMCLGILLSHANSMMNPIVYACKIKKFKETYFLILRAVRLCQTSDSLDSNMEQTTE

Row | MRS2365 concentrations during incubation [1] | metabolites observed (M2 = MRS2347, M1 = MRS4322) ([2]; 100 μM in human plasma, lithium heparin as anti-coagulant) | MRS2365 concentrations during incubation ([2]; heparin-treated human plasma, 0-90 seconds, even at 0 and 5 seconds) | metabolites observed (M2 = MRS2347, M1 = MRS4322) [3] | stability in phosphate-buffered saline [4] | C0 ([5]; female, pig, plasma, iv, read-out: C0) [ng/mL] | C0 [5] [ng/mL] | Plasma Concentration by Subject ([5]; neonatal pigs, 0 h, individual subjects, BLQ = below 0.0975 ng/mL) | Plasma Concentration Mean ([5]; neonatal pigs, 0 h, BLQ = below 0.0975 ng/mL) | difference in affinity between MRS4322 and Cl-IB-MECA (A3 receptor) | Structure (SMILES)
1 | extremely low | Two metabolites | extremely low | Two metabolites | completely stable |  |  |  |  |  | CSc1nc(N)c2ncn([C@H]3[C@H](O)[C@H](O)[C@]4(COP(=O)(O)OP(=O)(O)O)C[C@H]34)c2n1 [MRS2365]
2 |  |  |  |  |  | 266 | 269 | BLQ | BLQ | approximately 25,000 fold | CSc1nc(N)c2ncn([C@H]3[C@H](O)[C@H](O)[C@]4(CO)C[C@H]34)c2n1 [MRS4322]
